{"source": "patent US20240181001A1", "about": "“TREATMENT” (Queen Mary University London, priority 2021, published 2024)", "key": {"[1]": {"assay": "Side effects in C57/BL6 mice: body weight, lymphocytes, creatinine", "format": "in vivo, mouse", "settings": "Cis^3/anti-PD-1/anti-CTLA-4 and 29P, compared with Cis^6/anti-PD-1/anti-CTLA-4, placebo or single agent 29P", "method": "FIG. 3 illustrates that 29P treatment sensitizes KP tumors to current immunotherapies and chemotherapies. […] (A, B, E) Representative images of hematoxylin-eosin stained lungs and quantification of number of tumor foci and tumor burden. […] (D) C57/BL6 mice were treated with Placebo, 29P, Cis^6/α-PD-1+α-CTLA-4 and Cis^3/α-PD-1+α-CTLA-4/29P. […] (F) Representative images of hematoxylin-eosin stained lungs (left) and quantification of mouse body weights and tumor burden (right). N.S. Not significant/p>0.05, *p<0.05, **p<0.01, ***p<0.001. (A,B,D-F) ordinary One-way ANOVA with Tukey's multiple comparison test, for not normally distributed data Kruskal-Wallis test with Dunn's multiple comparison test, (C) Mantel-Cox test, n=5-8 per treatment. Scale bars: 5 mm in H&E staining."}, "KP tumors": {"system": "KP tumors", "format": "in vivo, mouse", "experimental": "Kras^LSL-G12D/+; Trp53^flox/flox (referred to as KP) were used to generate lung adenocarcinomas by administering Ad-Cre (Cre recombinase Adenovirus) 5×10^7 PFU as previously described (DuPage et al, 2009; Cortez-Retamozo et al, 2013; Pfirsche et al, 2016).\nCTLA-4 mAb (clone—9D9) (Bio X Cell) 100 μg/mouse was administered twice a week over 3 weeks. Rat IgG2a isotype control, anti-trinitrophenol (Clone 2A3) (Bio X Cell) 100 μg/mouse was administered twice a week during 3 weeks.\nFor VEGFR2 inactivation, KP mice were administered with anti-VEGFR2 (clone DC101, Bio X Cell) twice per week during three weeks.\nIn order to deplete CD8+ cells, KP mice were administered with anti-CD8α mAb intraperitoneally (clone YTS 169.4, BioXcell) twice per week after the first day of treatment and until the end of the experiments.\nIn order to deplete IFN-γ, KP mice were administered with anti-IFN-γ mAb intraperitoneally (XMG1.2, Bio X Cell) twice per week after the first day of treatment and until the end of the experiments. To deplete CXCL9, KP mice were administered with anti-CXCL9 mAb intraperitoneally (MIG-2F5.5, Bio X Cell) twice per week after the first day of treatment and until the end of the experiments. […]"}, "KP lung tumor cells": {"system": "KP lung tumor cells", "assay": "Cell survival assay (MTS), KP cells", "format": "cell-based, mouse", "settings": "increasing concentrations of cisplatin alone or with 2nM 29P", "method": "The lung adenocarcinoma cell line KP53 F1 was derived from lung tumors of C57BL/6 KP mice and was kindly provided by Dr. S A. Quezada, UCL Cancer Centre (University College London, UK).\n(§1) A549 or KP cell survival was analyzed using the CellTiter96® Aqueous One Solution Reagent (Promega #G3582) according to the manufacturer's instructions. Briefly, 1000 cells were seeded into 96-well plated. Cells were treated the following day and the solution reagent was added after 72 hours of treatment. Plates were read using a wavelength of 490 nm."}, "[2]": {"system": "human lung adenocarcinoma (A549) cells", "assay": "Cell survival assay (MTS), A549 cells", "format": "cell-based", "settings": "increasing concentrations of cisplatin alone or with 2nM 29P", "method": "A549 and LLC cells were purchased from ATCC. Mouse Lung Endothelial cells (EC) were obtained and cultured as previously described (34).\nas §1"}, "KP tumor burdened lung": {"system": "KP tumor burdened lung", "assay": "Flow cytometry of lungs bearing KP tumors", "format": "in vivo, mouse", "settings": "cisplatin treatment", "method": "Tumors were minced and incubated at 37° C. for 20 min in an enzymatic cocktail containing DNase (0.5 mg/ml, Sigma). Liberase (2 mg/ml, Sigma) in HBSS (Sigma) was used to make a single cell suspension for pancreatic tumors. For breast tumors, collagenase/dispase (1 mg/ml, Sigma) in PBS, was used to make a single cell suspension. Cells were passed through a […] filter (BD Biosciences), washed in PBS supplemented with 2% foetal bovine serum and 2 mM EDTA, counted and used immediately for flow cytometry. Before cells were stained with specific antibodies, nonspecific binding sites were blocked with Fcγ R III/II TruStain fcX (93, Biolegend). Staining was performed in PBS supplemented with 2% foetal bovine serum and 2 mM EDTA. The following fluorochrome-conjugated antibodies were used: anti-CD45 (30-F11), anti-CD3 (145-2C11), anti-CD4 (L3T4), anti-CD8 (53-6.7), anti-CD69 (H1.2F3), anti-CD44 (IM7), anti-CD62L (MEL-14), anti-CD19 (6D5), anti-CD11b (M1/70), anti-F4/80 (BM8) from Biolegend; anti-PD1 (RMP1-30), anti-Gr1 (RB6-8C5) and anti-Ly6C (HK1.4) from eBioscience. Fixable viability dye (FVD) (eBioscience) was used to discriminate between live and dead cells. Acquisition and analyses were performed on a BD LSRII system using BD […] software (BD Biosciences). The percentage of cells were analysed using FlowJo software (version 10.0.8 tree Star). Dead cells were excluded from the analysis on the basis of FVD and SSC gating. Cell doublets were excluded from the analysis by gating for FSC area versus FSC width. CD45+ cells were used to include leukocytes only in the data analysis."}}, "note": "Entries after “also recorded” stand apart in the source; their conditions may differ."}
{"smiles": "CCCCCCOC(=O)N=C(NCCC[C@@H]1NC(=O)[C@@H](C(C)C)N(C)C(=O)[C@H](C)N(C)C(=O)[C@H](C)NC(=O)[C@H](CC(=O)OC)NC(=O)CNC1=O)NC(=O)OCCCCCC", "note": "[29P, c(*vR(Hoc)2GD(OMe)A*A)]", "values": [{"measurement": "body weight", "setting": "[1]", "result": "restored; also recorded: significantly improved parameters"}, {"measurement": "creatinine levels", "setting": "[1]", "result": "restored; also recorded: significantly improved parameters"}, {"measurement": "lymphocyte numbers", "setting": "[1]", "result": "restored; also recorded: significantly improved parameters"}, {"measurement": "weight loss side effect", "setting": "KP tumors; mouse, in vivo", "result": "without apparent adverse weight loss side effects"}, {"measurement": "cisplatin cytotoxicity with 29P addition (MTS cell viability)", "setting": "KP lung tumor cells", "result": "independent of 29P addition"}, {"measurement": "cisplatin cytotoxicity with 29P addition (MTS cell viability)", "setting": "[2]", "result": "independent of 29P addition"}]}
{"smiles": "N.N.[Cl][Pt][Cl]", "note": "[cisplatin]", "values": [{"measurement": "anti-tumor effect", "setting": "KP tumors; KP mice, Cis^6 (cisplatin 6 mg/kg) alone", "result": "clear anti-tumor effect"}, {"measurement": "T cell (CD4+ and CD8+) numbers", "setting": "KP tumor burdened lung", "result": "increased"}, {"measurement": "myeloid cell (Gr1+, Natural killer cells, dendritic cells, monocytes) numbers", "setting": "KP tumor burdened lung", "result": "increased"}, {"measurement": "tumor associated macrophages", "setting": "KP tumor burdened lung", "result": "a reduction"}]}
